Where two headings read alike, the source gives them in different places.

Data set [1] is described as follows: Repeated dose intraperitoneal (IP) BID study in mice, plasma concentration by LC-MS/MS and PK fit. More on the design: species or system female CD-1 mice. The following applies: female, CD-1, mouse, in vivo, fitted, repeated-dose single-compartment first-order absorption model, 10 mg/kg IP BID; for half-life: ip, 10 mg/kg. On the procedure: A total of 204.47 mg of the compound of Example 1 was weighed out in a sterile vial on an analytical balance, and a 10.22 ml volume of sterile DMSO containing 5% by volume sterile Tween 80 was added to the vial under a Class II sterile hood and mixed until fully dissolved to produce a 20 mg/ml stock solution of the compound of Example 1. The stock solution was split into 1.2 ml aliquots in sterile glass vials and stored frozen at −80° C.
Sterile 1.0 mg/ml injection solution of the compound of Example 1 was formulated in normal saline containing 4.75% DMSO and 0.25% Tween 80. A visible precipitate formed without the addition of at least 0.1% Tween 80. The injection solution was prepared by thawing one aliquot of sterile 20 mg/ml stock solution, and adding 0.526 cc of stock solution to a 10 ml sterile vial of USP 0.9% sodium chloride for injection (Hospira) to yield the desired concentrations of 1.0 mg/ml o the compound of Example 1, 4.75% DMSO, and 0.25% Tween 80. The injection solution was gently mixed until fully dissolved. […] Injection solution was stored at 4° C. for up to five days after preparation, after which it was considered expired and discarded.
A total of 16 female CD-1 mice with an age of approximately 8-10 weeks (25-30 g) were used in this repeated dosing study. Each animal was weighed on the days 1, 4, 8, 11, and 15 during treatment. A 10 mg/kg dose of the compound of Example 1 was provided by IP injection of 10 ml/kg of 1.0 mg/ml injection solution to each animal every 12.0±0.5 hr. The injection solution was removed from the refrigerator and allowed to warm at room temperature for several minutes. The septum of the injection solution was wiped with sterile alcohol, and animals received 10 ml/kg by individual insulin syringes (one syringe per animal per injection), with the injection volume calculated using the most recent weighing for each individual animal. IP injections were staggered between the left and right side of the abdomen from one dosing to the next. […] The injection solution was returned to refrigerated storage after the last animal. […]

Data set [2] has as its target hERG (human ether-à-go-go-related gene) potassium channel current (Homo sapiens, UniProt Q12809). The experiment in a line: cell-based. On the procedure: All chemicals used in solution preparation were purchased from Sigma-Aldrich (St. Louis, Mo.) unless otherwise noted and were of ACS reagent grade purity or higher.
The duration of exposure to each test article concentration was 3 minutes.

Chain of hERG (human ether-à-go-go-related gene) potassium channel current (Q12809 whole entry): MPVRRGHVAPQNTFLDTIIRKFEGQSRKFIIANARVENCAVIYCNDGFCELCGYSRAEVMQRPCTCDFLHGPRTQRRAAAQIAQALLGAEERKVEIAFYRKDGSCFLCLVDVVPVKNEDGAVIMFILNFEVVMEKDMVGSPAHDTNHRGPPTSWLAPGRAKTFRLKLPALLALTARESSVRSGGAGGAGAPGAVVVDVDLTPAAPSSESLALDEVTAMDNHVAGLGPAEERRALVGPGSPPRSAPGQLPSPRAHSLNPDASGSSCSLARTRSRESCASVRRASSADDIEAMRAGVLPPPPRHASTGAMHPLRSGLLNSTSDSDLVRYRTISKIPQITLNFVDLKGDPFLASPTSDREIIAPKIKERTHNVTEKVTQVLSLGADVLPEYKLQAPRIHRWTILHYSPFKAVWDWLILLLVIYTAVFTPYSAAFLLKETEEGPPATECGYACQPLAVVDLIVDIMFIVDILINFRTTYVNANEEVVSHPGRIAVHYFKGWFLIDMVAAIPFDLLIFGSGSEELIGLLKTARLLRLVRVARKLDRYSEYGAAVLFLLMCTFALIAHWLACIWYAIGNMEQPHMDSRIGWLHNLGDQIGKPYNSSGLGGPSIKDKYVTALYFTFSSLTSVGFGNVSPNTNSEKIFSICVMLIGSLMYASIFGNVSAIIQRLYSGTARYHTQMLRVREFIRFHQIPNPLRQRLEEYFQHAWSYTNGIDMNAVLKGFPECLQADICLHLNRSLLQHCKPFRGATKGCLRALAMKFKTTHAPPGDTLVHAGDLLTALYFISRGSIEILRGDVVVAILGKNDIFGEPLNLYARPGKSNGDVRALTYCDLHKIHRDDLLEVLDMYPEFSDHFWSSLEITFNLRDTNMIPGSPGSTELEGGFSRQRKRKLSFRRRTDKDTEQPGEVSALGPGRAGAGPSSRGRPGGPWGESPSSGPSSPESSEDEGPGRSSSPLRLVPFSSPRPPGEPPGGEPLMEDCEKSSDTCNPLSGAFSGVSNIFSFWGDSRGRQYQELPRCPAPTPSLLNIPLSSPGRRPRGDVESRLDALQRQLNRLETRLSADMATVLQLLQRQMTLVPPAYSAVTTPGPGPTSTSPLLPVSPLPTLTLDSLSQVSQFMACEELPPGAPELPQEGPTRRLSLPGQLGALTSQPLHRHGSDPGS

One may read the half-life as how long it takes for the measured level to halve. Usually IC50 stands for the midpoint of a concentration-inhibition curve. The low end stands for greater potency, the high end for weaker potency. For `CSc1ccc2c(c1)N(CCC1CCCCN1)c1ccccc1S2.Cl` (stereo not shown) [Example 1, 2-(methylsulfanyl)-10-[2-(piperidin-2-yl)ethyl]-10H-phenothiazine hydrochloride], the Vd/F in data set [1] (read-out: apparent volume of distribution (V/F)) was 8 L/kg. Further, the half-life in data set [1] (read-out: absorption half-life (converted)) is 0.48 h; in data set [1] (read-out: elimination half-life (converted)) it was 14.7 h. Further, inhibition in data set [2] was half-maximal at 1550 nM (IC50).

The values above are taken from patent US9198916B1, “Compounds and methods for treating tumors” (B&G Partners, LLC, priority 2014, dated 2015).
